# Test results: patent publication US20180021257A1, “WATER-SOLUBLE PHARMACEUTICAL COMPOSITION COMPRISING AT LEAST ONE THERAPEUTICALLY ACTIVE SUBSTANCE AND AT LEAST ONE SUBSTANCE CAPABLE OF FORMING MICELLES” (CONSEJO NACIONAL DE INVESTIGACIONES CIENTIFICAS Y TECNICAS …, priority 2015, published 2018)
# Values joined by “and” are separate entries in the source; they are usually repeats but may differ in a detail not shown here. Equal values may be shown once. Read-outs that look alike come from different tables or passages of the source.
# What was measured:
# [1] = Loading of Ptx into antibiotic micelles, quantified by HPLC; format: physicochemical; details: for Ptx loaded (%): 30 minutes, Teicoplanina 100 mg/ml, Ptx added 5 mg; for Maximum load / loading capacity: Ptx or Dtx in micelles; for Ptx in Teicoplanin micelles: Teicoplanin 200 mg/ml
# Method: Samples with 400 mg of teicoplanin were dissolved in 2 ml of distilled water at pH 5.5 or in 2 ml of phosphate buffer solution of 20 mM at pH 6, with gentle stirring in order to obtain full dissolution. The solution was allowed to stand for at least 4 hours at 4° C. A 0.5 ml aliquot was incubated with 25 μl of DMSO having increasing amounts of Paclitaxel (Ptx) in order to reach the following final concentrations: 1 mg/ml, 5 mg/ml, 10 mg/ml and 20 mg/ml.
# The solutions were incubated at 25° C. for at least 4 hours and then centrifuged at 15,000×g for 10 minutes to remove the potential insoluble Ptx that had not encapsulated in teicoplanin micelles. Finally, in order to remove the remaining DMSO, the samples were dialyzed with a phosphate buffer solution of 20 mM at pH 6 for 12 hours. The quantification of Ptx introduced into teicoplanin micelles was carried out by using HPLC.
# Ptx is loaded into teicoplanin micelles at a concentration of 5 mg/ml, according to the description of Example 1, but for 30 minutes at 4° C., 25° C. and 37° C. After incubation, the samples were centrifuged at 15,000×g for 10 minutes and they were also dialyzed in distilled water for 12 hours at 4° C. Finally, the amount of Ptx introduced into the teicoplanin micelle in a soluble way was quantified by HPLC. […] The load in all conditions was higher than 90%.
# HEP-2 = assay: In vitro cytotoxic activity in tumor cell culture (MTT test); format: cell-based; details: for Cell Death after 24 Hours of Treatment: HEP-2, MTT
# Method: Tumor cells, such as HEP-2, were incubated in MEM medium having fetal bovine serum by 2% (Natocor-Villa Carlos Paz—Cordoba—Argentina) in a CO2 incubator by 5% CO2, at confluence. Different concentrations of the compositions mentioned below were added to the cell culture: […]
# [2] = Particle size of micelles by dynamic light scattering (DLS); format: physicochemical; details: for Diameter of micelles: comparative study, dynamic light scattering
# Description: Determining Particle Size of Teico, Teico-Ptx and Teico-PTX-Alb Micelles by Dynamic Light Scattering (DLS)
# [3] = Dialysis experiments on Teicoplanin micelles; format: physicochemical; details: after 48 hours of dialysis
# Method: In fact, in dialysis experiments, it was shown a loss of about 25% of molecules of Teicoplanin after 48 hours of dialysis, while for the Teico-Ptx complex is was shown a loss of about 5 to 8%.
# [4] = Critical micelle concentration (CMC); format: physicochemical
# [5] = Loading of Ptx into antibiotic micelles, quantified by HPLC; format: physicochemical; details: Teicoplanin 200 mg/ml; Ptx concentration 2.5 mg/ml
# [6] = cited from earlier work; for Micelles stable (Daptomycin: and biologically active): at 25° C.
# [7] = in vivo; cited from earlier work
# [8] = cited from earlier work
# [9] = Solubility in aqueous medium; format: physicochemical
# [10] = cited from earlier work; remark: listed apart in the source
# [11] = aqueous medium with teicoplanin micelles, aqueous with cosolvent or surfactant or cyclodextrin
# [12] = aqueous medium without micelles
molecule,measurement,setting,value
Teicoplanin,Ptx loaded (%),[1]; 4° C.,94%
same,Ptx loaded (%),[1]; 25° C.,96%
same,Ptx loaded (%),[1]; 37° C.,98%
same,Load capacity compared with Daptomycin,[1]; Dtx or Ptx,twice
same,Maximum load / loading capacity,[1],10 mg/mL
same,Maximum load / loading capacity,[1]; listed as Teicoplanin micelles,about 10 mg/ml
same,Ptx in Teicoplanin micelles,[1]; Ptx concentration 1 mg/ml,1 mg/mL
same,Ptx in Teicoplanin micelles,[1]; Ptx concentration 5 mg/ml,5 mg/mL
same,Ptx in Teicoplanin micelles,[1]; Ptx concentration 10 mg/ml,10 mg/mL
same,Ptx in Teicoplanin micelles,[1]; Ptx concentration 20 mg/ml,2 mg/mL
same,Ptx load,"[1]; in all conditions (4° C., 25° C. and 37° C.)",higher than 90%
same,Cell Death after 24 Hours of Treatment,HEP-2; Teico 5 μM control micelles without Ptx,0%
same,Effect on cells,HEP-2; Teicoplanin by itself,no effect
same,Size larger than Dapto and Dapto-Ptx micelles,[2],40%
same,Particle size,"[2]; DLS, Example 5",8 nm
same,Polydispersity index,"[2]; DLS, Example 5",0.017
same,Diameter of micelles,[2],8 nm
same,Loss of molecules of Teicoplanin,[3],about 25%
same,CMC,[4],100 µM
same,Interaction with red blood cells (RBCs),red blood cells (RBCs),neither Teicoplanin nor Teico-Ptx complex interact with red blood cells
same,Ptx in Teicoplanin micelles,[5],2.5 mg/mL
same,Micelles stable,[6]; at 4° C.,35 days
same,Micelles stable (Daptomycin: and biologically active),[6],48 hours
same,Half life,[7],70 to 100 h
same,Suggested maximum dose,[8]; to avoid unwanted side effects or cytotoxicity,20 mg/kg/day
"CC(=O)O[C@@]12CO[C@@H]1C[C@H](O)[C@@]1(C)C(=O)[C@H](O)C3=C(C)[C@@H](OC(=O)[C@H](O)[C@@H](NC(=O)OC(C)(C)C)c4ccccc4)C[C@@](O)([C@@H](OC(=O)c4ccccc4)[C@H]21)C3(C)C [Dtx, Docetaxel]",solubility,[9]; [11],10000 µg/mL
same,solubility,[9]; [12],< 1 µg/mL
"CC(=O)O[C@H]1C(=O)[C@@]2(C)[C@H]([C@H](OC(=O)c3ccccc3)[C@]3(O)C[C@H](OC(=O)[C@H](O)[C@@H](NC(=O)c4ccccc4)c4ccccc4)C(C)=C1C3(C)C)[C@]1(OC(C)=O)CO[C@@H]1C[C@@H]2O [Ptx, Paclitaxel]",Cell Death after 24 Hours of Treatment,HEP-2; Ptx 5 nM,10%
same,Cell Death after 24 Hours of Treatment,HEP-2; Ptx 10 nM,25%
same,Cell Death after 24 Hours of Treatment,HEP-2; Ptx 20 nM,40%
same,Cell Death after 24 Hours of Treatment,HEP-2; Ptx 50 nM,90%
same,Killing of tumor cells,HEP-2; in 24 hours up to a concentration of 50 ng/ml,complete killing
same,solubility,[9]; [11],10000 µg/mL
same,solubility,[9]; [12],< 1 µg/mL
CCCCCCCCCC(=O)N[C@@H](Cc1c[nH]c2ccccc12)C(=O)N[C@H](CC(N)=O)C(=O)N[C@@H](CC(=O)O)C(=O)N[C@@H]1C(=O)NCC(=O)N[C@@H](CCCN)C(=O)N[C@@H](CC(=O)O)C(=O)N[C@H](C)C(=O)N[C@@H](CC(=O)O)C(=O)NCC(=O)N[C@H](CO)C(=O)N[C@@H]([C@H](C)CC(=O)O)C(=O)N[C@@H](CC(=O)c2ccccc2N)C(=O)O[C@@H]1C [Daptomycin],Maximum load / loading capacity,[1],5 mg/mL
same,Diameter of micelles,[2],5 nm
same,Micelles stable and biologically active,[6]; at 4° C.,48 hours
same,Micelles stable (Daptomycin: and biologically active),[6],12 hours
same,CMC,"[10]; pH 4, listed as Dapto micelles",400 μg/ml and 250 μM
same,Concentration at which molecule remains soluble,[10]; pH 6.5,150000 µg/mL
same,Half life,[7],7 to 10 h
same,Suggested maximum dose,[8]; in vivo,10 to 12 mg/kg/day
